Activity calls are given as the source filed them. Cut-off read from the data, not from the text of the source, for most assays here: actives have a measured Kd and inactives only a lower limit.
How the values were obtained:
[1] = target: T1, Eukaryotic translation initiation factor 5B (Homo sapiens, UniProt O60841)
T1 sequence (O60841 whole entry): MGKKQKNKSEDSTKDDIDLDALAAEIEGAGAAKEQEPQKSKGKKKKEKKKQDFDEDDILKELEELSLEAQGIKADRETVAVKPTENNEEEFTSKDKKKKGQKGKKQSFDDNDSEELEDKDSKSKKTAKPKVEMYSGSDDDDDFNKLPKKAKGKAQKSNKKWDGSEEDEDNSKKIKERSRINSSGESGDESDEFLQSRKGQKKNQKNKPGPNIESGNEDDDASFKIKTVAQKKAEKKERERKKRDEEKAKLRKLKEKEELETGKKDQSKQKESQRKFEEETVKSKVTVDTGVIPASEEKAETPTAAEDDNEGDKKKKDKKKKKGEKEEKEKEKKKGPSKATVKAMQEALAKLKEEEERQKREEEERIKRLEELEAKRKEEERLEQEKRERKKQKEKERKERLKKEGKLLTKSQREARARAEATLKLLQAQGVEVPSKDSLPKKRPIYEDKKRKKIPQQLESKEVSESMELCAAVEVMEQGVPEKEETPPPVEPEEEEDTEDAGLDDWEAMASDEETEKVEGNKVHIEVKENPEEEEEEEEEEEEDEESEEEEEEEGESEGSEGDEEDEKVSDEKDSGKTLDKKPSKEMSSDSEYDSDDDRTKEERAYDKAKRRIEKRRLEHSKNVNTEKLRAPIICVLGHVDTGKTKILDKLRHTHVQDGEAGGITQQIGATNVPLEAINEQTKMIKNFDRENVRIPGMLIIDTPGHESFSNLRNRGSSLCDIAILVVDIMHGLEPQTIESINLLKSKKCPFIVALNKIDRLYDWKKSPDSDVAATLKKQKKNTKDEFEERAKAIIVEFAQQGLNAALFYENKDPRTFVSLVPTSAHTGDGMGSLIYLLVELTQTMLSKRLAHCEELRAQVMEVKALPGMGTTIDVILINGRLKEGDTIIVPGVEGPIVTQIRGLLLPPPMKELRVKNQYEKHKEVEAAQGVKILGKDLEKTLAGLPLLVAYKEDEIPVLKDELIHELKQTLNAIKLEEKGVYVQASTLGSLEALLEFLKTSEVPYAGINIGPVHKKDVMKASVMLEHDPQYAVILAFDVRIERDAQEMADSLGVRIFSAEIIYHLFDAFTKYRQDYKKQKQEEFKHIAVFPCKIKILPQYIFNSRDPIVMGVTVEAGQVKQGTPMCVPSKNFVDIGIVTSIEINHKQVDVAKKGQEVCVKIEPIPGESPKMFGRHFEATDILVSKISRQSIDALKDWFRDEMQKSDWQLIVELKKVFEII

[2] = target: T2, Dual specificity mitogen-activated protein kinase kinase 5 (Homo sapiens, UniProt Q13163)
T2 sequence (Q13163 whole entry): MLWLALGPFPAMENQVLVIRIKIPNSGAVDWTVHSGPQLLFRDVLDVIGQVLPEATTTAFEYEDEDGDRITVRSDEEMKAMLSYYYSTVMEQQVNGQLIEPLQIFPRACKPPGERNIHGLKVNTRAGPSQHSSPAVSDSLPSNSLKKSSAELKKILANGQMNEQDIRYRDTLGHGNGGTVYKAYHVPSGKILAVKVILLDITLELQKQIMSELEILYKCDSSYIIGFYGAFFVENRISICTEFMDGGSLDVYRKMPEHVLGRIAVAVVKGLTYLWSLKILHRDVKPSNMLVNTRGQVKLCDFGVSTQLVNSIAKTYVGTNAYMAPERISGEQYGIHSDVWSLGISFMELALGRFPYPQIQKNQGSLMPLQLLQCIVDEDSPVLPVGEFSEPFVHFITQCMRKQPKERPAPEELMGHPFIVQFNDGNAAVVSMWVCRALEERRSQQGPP

[3] = target: T3, Mitogen-activated protein kinase kinase kinase 3 (Homo sapiens, UniProt Q99759)
T3 sequence (Q99759 whole entry): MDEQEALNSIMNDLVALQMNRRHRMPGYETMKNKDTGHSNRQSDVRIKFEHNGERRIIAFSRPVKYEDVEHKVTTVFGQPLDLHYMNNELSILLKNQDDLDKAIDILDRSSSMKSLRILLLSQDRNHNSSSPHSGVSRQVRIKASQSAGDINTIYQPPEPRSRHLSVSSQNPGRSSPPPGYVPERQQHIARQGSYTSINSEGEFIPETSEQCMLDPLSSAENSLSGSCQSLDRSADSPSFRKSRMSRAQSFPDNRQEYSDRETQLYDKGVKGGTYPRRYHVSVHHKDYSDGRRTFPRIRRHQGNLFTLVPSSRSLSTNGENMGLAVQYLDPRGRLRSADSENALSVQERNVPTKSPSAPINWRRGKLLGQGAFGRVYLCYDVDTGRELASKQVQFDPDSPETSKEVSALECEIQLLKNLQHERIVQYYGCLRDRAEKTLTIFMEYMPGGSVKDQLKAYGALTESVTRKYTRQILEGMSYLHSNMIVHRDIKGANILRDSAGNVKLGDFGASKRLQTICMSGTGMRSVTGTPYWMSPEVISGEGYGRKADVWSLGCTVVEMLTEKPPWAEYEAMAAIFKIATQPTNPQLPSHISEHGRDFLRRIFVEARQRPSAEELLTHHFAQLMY

[4] = target: Ras-related protein Rab-6A (Homo sapiens, UniProt P20340)
[5] = target: Ribosomal protein S6 kinase alpha-6 (Homo sapiens, UniProt Q9UK32)
[6] = target: T4, Serine/threonine-protein kinase ULK3 (Homo sapiens, UniProt Q6PHR2)
T4 sequence (Q6PHR2 whole entry): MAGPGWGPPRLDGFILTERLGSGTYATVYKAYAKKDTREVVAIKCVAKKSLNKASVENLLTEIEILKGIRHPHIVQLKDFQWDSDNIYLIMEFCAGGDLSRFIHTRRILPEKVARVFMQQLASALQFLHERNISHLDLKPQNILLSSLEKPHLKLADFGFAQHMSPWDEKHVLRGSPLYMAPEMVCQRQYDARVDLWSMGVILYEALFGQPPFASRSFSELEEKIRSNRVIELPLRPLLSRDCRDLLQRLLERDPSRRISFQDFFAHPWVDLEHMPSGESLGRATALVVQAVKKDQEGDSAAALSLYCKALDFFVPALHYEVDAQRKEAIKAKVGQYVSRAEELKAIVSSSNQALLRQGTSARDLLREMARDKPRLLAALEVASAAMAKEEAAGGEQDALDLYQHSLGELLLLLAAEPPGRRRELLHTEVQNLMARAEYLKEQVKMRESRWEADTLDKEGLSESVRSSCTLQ

Wee1-like protein kinase = Wee1-like protein kinase (Homo sapiens, UniProt P30291)
Note: in the data inactive means no Kd found up to 30 µM.

Ras-related protein Rab-6A, sequence (P20340 whole entry): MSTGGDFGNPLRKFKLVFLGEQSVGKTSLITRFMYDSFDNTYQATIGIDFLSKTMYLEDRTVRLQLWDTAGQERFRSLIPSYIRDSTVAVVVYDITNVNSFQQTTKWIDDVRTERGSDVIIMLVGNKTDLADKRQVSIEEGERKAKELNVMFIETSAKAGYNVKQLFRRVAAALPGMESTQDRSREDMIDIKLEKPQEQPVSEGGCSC
Wee1-like protein kinase, sequence (P30291 whole entry): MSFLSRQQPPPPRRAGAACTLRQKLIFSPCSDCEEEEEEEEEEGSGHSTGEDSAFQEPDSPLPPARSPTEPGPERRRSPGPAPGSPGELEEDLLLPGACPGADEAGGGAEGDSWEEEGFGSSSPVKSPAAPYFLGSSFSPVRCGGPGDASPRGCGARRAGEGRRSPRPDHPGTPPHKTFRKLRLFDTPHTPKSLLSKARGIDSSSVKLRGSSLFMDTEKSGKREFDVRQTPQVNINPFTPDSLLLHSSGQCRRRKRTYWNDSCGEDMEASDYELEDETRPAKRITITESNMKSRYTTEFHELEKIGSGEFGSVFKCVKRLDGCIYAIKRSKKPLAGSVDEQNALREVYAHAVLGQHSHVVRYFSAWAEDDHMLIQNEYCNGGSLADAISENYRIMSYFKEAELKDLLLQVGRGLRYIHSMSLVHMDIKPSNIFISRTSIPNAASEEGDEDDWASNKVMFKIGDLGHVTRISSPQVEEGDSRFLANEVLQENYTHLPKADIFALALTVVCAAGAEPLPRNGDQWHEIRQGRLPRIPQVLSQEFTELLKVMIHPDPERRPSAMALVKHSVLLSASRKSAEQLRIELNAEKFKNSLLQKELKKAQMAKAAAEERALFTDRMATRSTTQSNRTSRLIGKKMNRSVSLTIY
Ribosomal protein S6 kinase alpha-6, sequence (Q9UK32 whole entry): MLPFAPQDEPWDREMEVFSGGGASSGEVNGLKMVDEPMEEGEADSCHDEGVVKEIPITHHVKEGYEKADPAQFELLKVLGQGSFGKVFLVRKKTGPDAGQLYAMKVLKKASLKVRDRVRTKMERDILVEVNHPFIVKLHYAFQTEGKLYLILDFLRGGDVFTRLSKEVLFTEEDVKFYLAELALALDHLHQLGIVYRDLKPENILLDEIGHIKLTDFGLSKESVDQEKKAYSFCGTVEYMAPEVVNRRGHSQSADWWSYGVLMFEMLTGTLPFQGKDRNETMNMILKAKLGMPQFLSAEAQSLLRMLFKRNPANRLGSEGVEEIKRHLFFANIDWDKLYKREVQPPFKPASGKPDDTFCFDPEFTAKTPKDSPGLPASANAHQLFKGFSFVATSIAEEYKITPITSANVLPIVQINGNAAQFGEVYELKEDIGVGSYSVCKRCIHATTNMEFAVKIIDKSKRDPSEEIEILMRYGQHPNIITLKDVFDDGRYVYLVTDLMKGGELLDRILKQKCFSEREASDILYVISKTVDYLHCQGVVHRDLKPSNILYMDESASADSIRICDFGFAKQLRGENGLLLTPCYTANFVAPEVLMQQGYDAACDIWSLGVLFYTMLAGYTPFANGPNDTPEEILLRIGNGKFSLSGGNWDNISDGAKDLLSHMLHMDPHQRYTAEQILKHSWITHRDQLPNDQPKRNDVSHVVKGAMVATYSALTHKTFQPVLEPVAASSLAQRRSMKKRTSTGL

Structure (SMILES)	Kd [1]	Kd [2]	Kd [3]	Kd [4]	Kd [5]	Kd [6]	Kd (Wee1-like protein kinase)
C[C@H]1CNCCCN1S(=O)(=O)c1cccc2cncc(F)c12	> 30 µM (inactive)	> 30 µM (inactive)	> 30 µM (inactive)	> 30 µM (inactive)	> 30 µM (inactive)	> 30 µM (inactive)	> 30 µM (inactive)
CC(=O)c1cnc2ccc(-c3cc(Cl)c(O)c(Cl)c3)nc2c1N[C@H]1CC[C@H](CN(C)C)CC1	> 30 µM (inactive)	0.058 µM (active)		> 30 µM (inactive)	0.057 µM (active)		> 30 µM (inactive)
C=CC(=O)N1CCC[C@H](n2c(=O)n(-c3ccc(Oc4ccccc4)cc3)c3c(N)ncnc32)C1	> 30 µM (inactive)	> 30 µM (inactive)	> 30 µM (inactive)		> 30 µM (inactive)	> 30 µM (inactive)	> 30 µM (inactive)
Cc1nc2cc(-c3nn(C(C)C)c4ncnc(N)c34)ccc2o1	> 30 µM (inactive)		> 30 µM (inactive)	> 30 µM (inactive)	> 30 µM (inactive)	> 30 µM (inactive)	> 30 µM (inactive)
COc1cc(Nc2ncc3c(n2)-c2ccc(Cl)cc2C(c2c(F)cccc2OC)=NC3)ccc1C(=O)O [ALISERTIB]	> 30 µM (inactive)	> 30 µM (inactive)	> 30 µM (inactive)	> 30 µM (inactive)	> 30 µM (inactive)		> 30 µM (inactive)
Cc1nc(NC(=O)N2CCC[C@H]2C(N)=O)sc1-c1ccnc(C(C)(C)C(F)(F)F)c1 [ALPELISIB]	> 30 µM (inactive)	> 30 µM (inactive)	> 30 µM (inactive)	> 30 µM (inactive)	> 30 µM (inactive)	> 30 µM (inactive)	> 30 µM (inactive)
Cc1csc(-c2nnc(Nc3ccc(Oc4ncccc4-c4ccnc(N)n4)cc3)c3ccccc23)c1 [AMG-900]	> 30 µM (inactive)	> 30 µM (inactive)	2.75 µM (active)	> 30 µM (inactive)	> 30 µM (inactive)	> 30 µM (inactive)	> 30 µM (inactive)
O=C(Nc1c[nH]nc1-c1nc2cc(CN3CCOCC3)ccc2[nH]1)NC1CC1 [AT-9283]	> 30 µM (inactive)	0.047 µM (active)	0.345 µM (active)	> 30 µM (inactive)			> 30 µM (inactive)
C=CC(=O)Nc1cc2c(Nc3ccc(F)c(Cl)c3)ncnc2cc1C#CC(C)(C)N1CCN(C)CC1 [AV-412 FREE BASE]	> 30 µM (inactive)	> 30 µM (inactive)	> 30 µM (inactive)	> 30 µM (inactive)	> 30 µM (inactive)	> 30 µM (inactive)	> 30 µM (inactive)
CNC(=O)c1ccccc1Sc1ccc2c(/C=C/c3ccccn3)n[nH]c2c1 [AXITINIB]	> 30 µM (inactive)			> 30 µM (inactive)			
Cc1cc(C(=O)NOCCO)c(Nc2ccc(I)cc2F)n(C)c1=O [AZD-8330]	> 30 µM (inactive)	2.66 µM (active)	> 30 µM (inactive)	> 30 µM (inactive)	> 30 µM (inactive)	> 30 µM (inactive)	> 30 µM (inactive)
Cn1cnc2c(F)c(Nc3ccc(Br)cc3F)c(C(=O)NOCCO)cc21 [BINIMETINIB]	> 30 µM (inactive)	> 30 µM (inactive)	> 30 µM (inactive)	> 30 µM (inactive)	> 30 µM (inactive)	> 30 µM (inactive)	> 30 µM (inactive)
CCn1c(C(=O)N(C2CC2)C2CC2)cc2c3c(ncn3C)c(Nc3cc(C)n(C)n3)nc21 [BMS-911543]	> 30 µM (inactive)	> 30 µM (inactive)	> 30 µM (inactive)	> 30 µM (inactive)	> 30 µM (inactive)	> 30 µM (inactive)	> 30 µM (inactive)
COc1cc2ncnc(Oc3cccc(NC(=O)Nc4cc(C(C)(C)C(F)(F)F)on4)c3)c2cc1OC [CEP-32496]	> 30 µM (inactive)	> 30 µM (inactive)	> 30 µM (inactive)	> 30 µM (inactive)	> 30 µM (inactive)	> 30 µM (inactive)	> 30 µM (inactive)
COc1c(OCCCN2CCOCC2)ccc2c1N=C(NC(=O)c1cnc(N)nc1)N1CCN=C21 [COPANLISIB]	> 30 µM (inactive)	> 30 µM (inactive)	> 30 µM (inactive)	> 30 µM (inactive)	> 30 µM (inactive)	> 30 µM (inactive)	> 30 µM (inactive)
CC(C)(C)c1nc(-c2cccc(NS(=O)(=O)c3c(F)cccc3F)c2F)c(-c2ccnc(N)n2)s1 [DABRAFENIB]	> 30 µM (inactive)	2.29 µM (active)		> 30 µM (inactive)	> 30 µM (inactive)	1.48 µM	> 30 µM (inactive)
C[C@@H](Oc1cc(-n2cnc3ccc(CN4CCN(C)CC4)cc32)sc1C(N)=O)c1ccccc1C(F)(F)F [GSK-461364]	> 30 µM (inactive)			> 30 µM (inactive)			
Cc1[nH]c(/C=C2\C(=O)Nc3ccccc32)c(C)c1CCC(=O)O [ORANTINIB]	> 30 µM (inactive)	4.94 µM (active)	> 30 µM (inactive)		> 30 µM (inactive)	1.46 µM (active)	> 30 µM (inactive)
NC(=O)c1c(OCc2c(F)cc(Br)cc2F)nsc1NC(=O)NCCCCN1CCCC1 [OSI-632]	> 30 µM (inactive)	> 30 µM (inactive)		> 30 µM (inactive)	> 30 µM (inactive)	> 30 µM (inactive)	> 30 µM (inactive)
O=C(NOCCO)c1cc(CN2OCCCC2=O)c(F)c(F)c1Nc1ccc(I)cc1F [RO-4987655]	> 30 µM (inactive)			> 30 µM (inactive)			
N#CC[C@H](C1CCCC1)n1cc(-c2ncnc3[nH]ccc23)cn1 [RUXOLITINIB]	> 30 µM (inactive)						
